Values of other authors, collected in EP4541846A1, “ENCAPSULANT FILM COMPOSITION, AND ENCAPSULANT FILM COMPRISING SAME” (LG Chem, Ltd., priority 2022, dated 2024).
Structures can show the parent of a compound that is named as a salt.

Conditions: marked by acute toxicity, oral/acute toxicity, percutaneous/skin corrosivity/skin irritation/severe eye damage/eye irritation/dermal hypersensitivity, or the like

Row | SMILES | harmfulness/dangerousness classification in SDS
1 | C=CCOC(=O)/C=C\C(=O)OCC=C [diallyl maleate] | harmful
2 | C=CCOC(=O)/C=C/C(=O)OCC=C [diallyl fumarate] | harmful
3 | C=CCOC(=O)OC(=O)OCC=C [diallyl decarbonate] | harmful
